Measured values: the NIST ThermoML archive (doi:10.1016/j.jct.2003.11.008)

How the values were obtained:
[1] = excess molar enthalpy (molar enthalpy of mixing); xn = mol fraction of the nth substance listed; details: 318.15 K, 101.3 kPa, Liquid
[2] = xn = mol fraction of the nth substance listed; details: 318.15 K, 101.3 kPa, Liquid

CCCCCOC(C)=O [pentyl ethanoate] + CCCCCCCCCCCCC
Details	excess molar enthalpy [kJ/mol]	excess molar volume [m3/mol]
[1], x1 = 0.0653	0.319	–
[1], x1 = 0.1352	0.576	–
[1], x1 = 0.2036	0.798	–
[1], x1 = 0.2679	0.966	–
[1], x1 = 0.326	1.08	–
[1], x1 = 0.3795	1.16	–
[1], x1 = 0.4178	1.2	–
[1], x1 = 0.4635	1.23	–
[1], x1 = 0.5035	1.23	–
[1], x1 = 0.5376	1.21	–
[1], x1 = 0.5674	1.19	–
[1], x1 = 0.5679	1.17	–
[1], x1 = 0.6418	1.09	–
[1], x1 = 0.6886	1.01	–
[1], x1 = 0.7385	0.908	–
[1], x1 = 0.7897	0.792	–
[1], x1 = 0.8433	0.639	–
[1], x1 = 0.8966	0.453	–
[1], x1 = 0.9506	0.243	–
[2], x1 = 0.0955	–	3.07e-07
[2], x1 = 0.1575	–	4.63e-07
[2], x1 = 0.2323	–	6.22e-07
[2], x1 = 0.2961	–	7.29e-07
[2], x1 = 0.3517	–	7.96e-07
[2], x1 = 0.4152	–	8.59e-07
[2], x1 = 0.4689	–	8.87e-07
[2], x1 = 0.5228	–	8.91e-07
[2], x1 = 0.5724	–	8.76e-07
[2], x1 = 0.6226	–	8.35e-07
[2], x1 = 0.667	–	7.77e-07
[2], x1 = 0.7036	–	7.29e-07
[2], x1 = 0.7416	–	6.77e-07
[2], x1 = 0.8311	–	5.02e-07
[2], x1 = 0.8985	–	3.43e-07
[2], x1 = 0.9564	–	1.66e-07

CCCCCOC(C)=O [pentyl ethanoate] + CCCCCCCCC
Details	excess molar enthalpy [kJ/mol]	excess molar volume [m3/mol]
[1], x1 = 0.0676	0.301	–
[1], x1 = 0.1364	0.526	–
[1], x1 = 0.2097	0.723	–
[1], x1 = 0.2818	0.866	–
[1], x1 = 0.3491	0.955	–
[1], x1 = 0.4124	1	–
[1], x1 = 0.4692	1.02	–
[1], x1 = 0.5191	1	–
[1], x1 = 0.5639	0.972	–
[1], x1 = 0.621	0.904	–
[1], x1 = 0.6739	0.843	–
[1], x1 = 0.7288	0.757	–
[1], x1 = 0.7858	0.644	–
[1], x1 = 0.8432	0.504	–
[1], x1 = 0.8986	0.346	–
[1], x1 = 0.9529	0.176	–
[2], x1 = 0.0672	–	1.52e-07
[2], x1 = 0.1243	–	2.83e-07
[2], x1 = 0.1813	–	4.14e-07
[2], x1 = 0.2354	–	5.13e-07
[2], x1 = 0.3037	–	5.97e-07
[2], x1 = 0.3405	–	6.3e-07
[2], x1 = 0.3995	–	6.66e-07
[2], x1 = 0.4479	–	6.75e-07
[2], x1 = 0.5035	–	6.77e-07
[2], x1 = 0.5492	–	6.64e-07
[2], x1 = 0.6071	–	6.24e-07
[2], x1 = 0.6461	–	5.91e-07
[2], x1 = 0.685	–	5.48e-07
[2], x1 = 0.7852	–	4.49e-07
[2], x1 = 0.8739	–	3.42e-07
[2], x1 = 0.9451	–	2.1e-07

CCCCCCCCCCCCC [tridecane] + CCCCOC(C)=O
Details	excess molar enthalpy [kJ/mol]	excess molar volume [m3/mol]
[1], x2 = 0.0771	0.382	–
[1], x2 = 0.166	0.712	–
[1], x2 = 0.2551	0.995	–
[1], x2 = 0.3371	1.2	–
[1], x2 = 0.405	1.31	–
[1], x2 = 0.4672	1.36	–
[1], x2 = 0.5179	1.38	–
[1], x2 = 0.5589	1.36	–
[1], x2 = 0.5984	1.34	–
[1], x2 = 0.6058	1.33	–
[1], x2 = 0.64	1.28	–
[1], x2 = 0.6863	1.2	–
[1], x2 = 0.7361	1.08	–
[1], x2 = 0.7879	0.939	–
[1], x2 = 0.8426	0.766	–
[1], x2 = 0.8971	0.545	–
[1], x2 = 0.9531	0.286	–
[2], x2 = 0.1024	–	3.78e-07
[2], x2 = 0.1769	–	5.73e-07
[2], x2 = 0.2511	–	7.35e-07
[2], x2 = 0.3192	–	8.56e-07
[2], x2 = 0.3845	–	9.36e-07
[2], x2 = 0.4434	–	9.93e-07
[2], x2 = 0.5021	–	1.014e-06
[2], x2 = 0.5481	–	1.023e-06
[2], x2 = 0.6023	–	1.006e-06
[2], x2 = 0.6495	–	9.59e-07
[2], x2 = 0.6914	–	9.14e-07
[2], x2 = 0.7346	–	8.49e-07
[2], x2 = 0.7647	–	7.97e-07
[2], x2 = 0.8473	–	5.94e-07
[2], x2 = 0.9072	–	3.95e-07
[2], x2 = 0.9586	–	1.65e-07

CCCOC(C)=O [propyl ethanoate] + CCCCCCC
Details	excess molar enthalpy [kJ/mol]	excess molar volume [m3/mol]
[1], x1 = 0.0692	0.345	–
[1], x1 = 0.1449	0.633	–
[1], x1 = 0.2229	0.884	–
[1], x1 = 0.2968	1.05	–
[1], x1 = 0.3635	1.16	–
[1], x1 = 0.4256	1.22	–
[1], x1 = 0.484	1.24	–
[1], x1 = 0.535	1.22	–
[1], x1 = 0.5539	1.19	–
[1], x1 = 0.6002	1.13	–
[1], x1 = 0.6528	1.05	–
[1], x1 = 0.6987	0.956	–
[1], x1 = 0.7526	0.828	–
[1], x1 = 0.8089	0.659	–
[1], x1 = 0.8635	0.493	–
[1], x1 = 0.9048	0.354	–
[1], x1 = 0.9537	0.185	–
[2], x1 = 0.0727	–	3.32e-07
[2], x1 = 0.1288	–	4.98e-07
[2], x1 = 0.1829	–	6.45e-07
[2], x1 = 0.2463	–	7.68e-07
[2], x1 = 0.2995	–	8.38e-07
[2], x1 = 0.3536	–	8.87e-07
[2], x1 = 0.404	–	9.09e-07
[2], x1 = 0.463	–	9.23e-07
[2], x1 = 0.5069	–	9.1e-07
[2], x1 = 0.5618	–	8.85e-07
[2], x1 = 0.6574	–	7.96e-07
[2], x1 = 0.6914	–	7.52e-07
[2], x1 = 0.7928	–	5.61e-07
[2], x1 = 0.8765	–	3.62e-07
[2], x1 = 0.9436	–	1.75e-07

CCCCCCCCCCCCCCCCC [heptadecane] + CCCOC(C)=O
Details	excess molar enthalpy [kJ/mol]	excess molar volume [m3/mol]
[1], x2 = 0.0838	0.481	–
[1], x2 = 0.1596	0.871	–
[1], x2 = 0.2462	1.26	–
[1], x2 = 0.3255	1.55	–
[1], x2 = 0.3884	1.7	–
[1], x2 = 0.4477	1.82	–
[1], x2 = 0.4925	1.87	–
[1], x2 = 0.5313	1.89	–
[1], x2 = 0.5702	1.89	–
[1], x2 = 0.6288	1.83	–
[1], x2 = 0.6644	1.77	–
[1], x2 = 0.7023	1.69	–
[1], x2 = 0.7423	1.59	–
[1], x2 = 0.7826	1.45	–
[1], x2 = 0.8239	1.29	–
[1], x2 = 0.8654	1.1	–
[1], x2 = 0.9064	0.849	–
[1], x2 = 0.9452	0.579	–
[1], x2 = 0.9772	0.278	–
[2], x2 = 0.2332	–	8.02e-07
[2], x2 = 0.3167	–	1.017e-06
[2], x2 = 0.4087	–	1.166e-06
[2], x2 = 0.4759	–	1.235e-06
[2], x2 = 0.5393	–	1.28e-06
[2], x2 = 0.5977	–	1.276e-06
[2], x2 = 0.6463	–	1.246e-06
[2], x2 = 0.6916	–	1.225e-06
[2], x2 = 0.7628	–	1.103e-06
[2], x2 = 0.8202	–	9.42e-07
[2], x2 = 0.891	–	6.77e-07
[2], x2 = 0.9375	–	4.38e-07
[2], x2 = 0.9705	–	2.25e-07

CCCCCCCCC [nonane] + COC(C)=O
Details	excess molar enthalpy [kJ/mol]	excess molar volume [m3/mol]
[1], x2 = 0.0822	0.547	–
[1], x2 = 0.1628	1.01	–
[1], x2 = 0.2353	1.4	–
[1], x2 = 0.2999	1.67	–
[1], x2 = 0.364	1.88	–
[1], x2 = 0.4195	2.01	–
[1], x2 = 0.4714	2.08	–
[1], x2 = 0.5122	2.11	–
[1], x2 = 0.549	2.12	–
[1], x2 = 0.5847	2.12	–
[1], x2 = 0.621	2.1	–
[1], x2 = 0.6618	2.05	–
[1], x2 = 0.7017	1.94	–
[1], x2 = 0.7452	1.81	–
[1], x2 = 0.7891	1.62	–
[1], x2 = 0.8353	1.43	–
[1], x2 = 0.8771	1.21	–
[1], x2 = 0.9219	0.87	–
[1], x2 = 0.9643	0.433	–
[2], x2 = 0.1052	–	6.91e-07
[2], x2 = 0.2035	–	1.199e-06
[2], x2 = 0.2896	–	1.534e-06
[2], x2 = 0.3598	–	1.693e-06
[2], x2 = 0.4249	–	1.805e-06
[2], x2 = 0.4901	–	1.864e-06
[2], x2 = 0.547	–	1.881e-06
[2], x2 = 0.5991	–	1.837e-06
[2], x2 = 0.6418	–	1.774e-06
[2], x2 = 0.6901	–	1.658e-06
[2], x2 = 0.7312	–	1.562e-06
[2], x2 = 0.7687	–	1.431e-06
[2], x2 = 0.7969	–	1.305e-06
[2], x2 = 0.8736	–	9.39e-07
[2], x2 = 0.925	–	6.28e-07
[2], x2 = 0.9663	–	3.07e-07

CCCCCCCCCCCCC [tridecane] + CCCOC(C)=O
Details	excess molar enthalpy [kJ/mol]	excess molar volume [m3/mol]
[1], x2 = 0.087	0.431	–
[1], x2 = 0.1659	0.784	–
[1], x2 = 0.2413	1.09	–
[1], x2 = 0.3093	1.3	–
[1], x2 = 0.3709	1.46	–
[1], x2 = 0.4257	1.56	–
[1], x2 = 0.477	1.61	–
[1], x2 = 0.5193	1.63	–
[1], x2 = 0.5602	1.64	–
[1], x2 = 0.6296	1.58	–
[1], x2 = 0.6706	1.54	–
[1], x2 = 0.716	1.45	–
[1], x2 = 0.7628	1.33	–
[1], x2 = 0.809	1.14	–
[1], x2 = 0.8594	0.911	–
[1], x2 = 0.9097	0.659	–
[1], x2 = 0.9585	0.327	–
[2], x2 = 0.1139	–	4.77e-07
[2], x2 = 0.1844	–	7.09e-07
[2], x2 = 0.2748	–	9.32e-07
[2], x2 = 0.3425	–	1.072e-06
[2], x2 = 0.4123	–	1.16e-06
[2], x2 = 0.4772	–	1.205e-06
[2], x2 = 0.5337	–	1.232e-06
[2], x2 = 0.5864	–	1.216e-06
[2], x2 = 0.6311	–	1.183e-06
[2], x2 = 0.6791	–	1.139e-06
[2], x2 = 0.722	–	1.069e-06
[2], x2 = 0.7535	–	1.012e-06
[2], x2 = 0.7862	–	9.31e-07
[2], x2 = 0.8631	–	6.98e-07
[2], x2 = 0.9199	–	4.58e-07
[2], x2 = 0.9642	–	2.27e-07
